Patent publication US20160304957A1, “TREATMENT AND MODULATION OF GENE EXPRESSION AND SKIN AGING” (DSM NUTRITIONAL PRODUCTS LTD., priority 2006, published 2016)

Key:
caspase-3 = experiment: Caspase-3 activity, CaspACE Assay System; format: cell-based, human
Description: Cells were supplemented with β-carotene for 2 days and prior to UVA irradiation (270 kJ/m^2). Caspase-3 activity was determined at 5 hours after irradiation. Values are mean±standard error of an experiment with four replicates.
Caspase-3 activity 5 hours after UVA irradiation was quantified in five separate experiments using the CaspACE™ Assay System (Promega/Catalys, Switzerland).

HaCaT cells = experiment: Depletion of cellular β-carotene content by UVA irradiation, HPLC; format: in vitro ADME, human; conditions: 270 kJ/m^2 UVA
Description: On day 3 of the experiment, cells were washed six times with Ca/Mg-free PBS containing 2% BSA, and then irradiated with light with a Hönle sun lamp Sol 500 (Dr. Hönle, Plannegg, Germany) at a dose of 270 kJ/m^2 in Ca/Mg-free PBS (2 hour exposure time at […]). The experimental schedule was chosen because the cells had optimal UVA sensitivity after 48 hours in culture. […] Confluent cultures were much less sensitive to irradiation.

MMP-1 = experiment: ELISA of MMP-1 release into cell culture supernatant of HaCaT cells; format: cell-based, human
Description: (§1) HaCaT cells were supplemented with 0.5, 1.5, or 3 μM β-carotene for 2 days prior to UVA (270 kJ/m^2) irradiation. MMP-1 and TIMP-1 secretion 24 hours after irradiation was analyzed by ELISA. Each condition was represented by three replicates in the experiment. Values are means±standard error.
(§2) Release of MMP-1, and TIMP-1 into cell culture supernatant was determined by ELISA at 24 hours after irradiation. MMP-1 and TIMP-1 release was measured using MMP-1 and TIMP ELISA from CALBIOCHEM (San Diego, Calif., USA). The ELISAs were performed according to the manufacturer's instructions.

photosensitization = conditions: EPP patients, 180 mg/d; cited from earlier work
[1] = β-Carotene concentration in culture medium during incubation; format: physicochemical; conditions: 24 hours of incubation, irrespective of the presence of cells
Description: β-carotene-containing medium was prepared as follows. Fresh all-E-β-carotene (DSM Nutritional Products, Kaiseraugst, Switzerland) stock solution in THF (containing 0.025% BHT; Fluka Chemie A G, Switzerland) was diluted 1:2 with ethanol and added to cell culture medium to a final concentration of 1.5 μM β-carotene. The solvent concentration in the medium was 0.5% for all treatments. β-carotene-containing medium was prepared fresh for the daily medium changes.

sunburn cells = conditions: supplementation, humans; cited from earlier work
TIMP-1 = experiment: ELISA of TIMP-1 release into cell culture supernatant of HaCaT cells; format: cell-based, human; conditions: β-carotene, with or without UVA
Description: as §1, §2

non-melanoma skin cancer = conditions: clinical intervention trials; cited from earlier work
skin carcinogenesis = conditions: supplementation, rodents; cited from earlier work

## CC1=C(/C=C/C(C)=C/C=C/C(C)=C/C=C/C=C(C)/C=C/C=C(C)/C=C/C2=C(C)CCCC2(C)C)C(C)(C)CCC1 [β-carotene, All-E-β-carotene]
caspase-3; β-carotene alone, unirradiated
  caspase-3 activation: Neither UVA nor β-carotene alone activated caspase-3
caspase-3; β-carotene with UVA 270 kJ/m^2, 5 hours after irradiation
  caspase-3 activity: induce caspase-3 activity in a dose-dependent manner
HaCaT cells; 0.5 μM β-carotene 2 days
  effect of UVA on cellular β-carotene content: did not reduce
HaCaT cells; 1.5 or 3 μM β-carotene 2 days
  cellular β-carotene stores remaining after UVA irradiation: about 13%
MMP-1; 24 hours after UVA
  UVA-induced MMP-1 production, protein level: Downregulation
MMP-1; unirradiated cells
  basal MMP-1 protein expression: tended to reduce
photosensitization
  symptoms of photosensitization: alleviated the symptoms of photosensitization
[1]
  β-carotene concentration in medium remaining: approximately 50%
Sunburn cells
  number of sunburn cells: did not alter the number of sunburn cells
TIMP-1
  TIMP-1 protein level: not significantly influenced
non-melanoma skin cancer
  prevention of non-melanoma skin cancer: no significant prevention
Skin carcinogenesis
  skin carcinogenesis: reduced skin carcinogenesis
